For 23 compounds, IC50 results are on record in patent US20080200454A1, “CARBON-LINKED TETRAHYDRO-PYRAZOLO-PYRIDINE MODULATORS OF CATHEPSIN S” (priority 2007, published 2008).

SMILES strings stand for the structures. Read-outs that look alike come from different tables or passages of the source.

The target in this assay is Recombinant human cathepsin S (CatS) (Homo sapiens, UniProt P25774). The assay is described as follows: Recombinant human cathepsin S (CatS) inhibition assay, fluorogenic substrate Z-Valine-Valine-Arginine-AMC.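 Note: Baculovirus-expressed CatS in pH 5.0 sodium acetate buffer with DTT and NaCl, fluorescence read each minute over 20 min, inhibition derived from rate slope.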
Recombinant human cathepsin S (CatS), sequence (P25774 115-331): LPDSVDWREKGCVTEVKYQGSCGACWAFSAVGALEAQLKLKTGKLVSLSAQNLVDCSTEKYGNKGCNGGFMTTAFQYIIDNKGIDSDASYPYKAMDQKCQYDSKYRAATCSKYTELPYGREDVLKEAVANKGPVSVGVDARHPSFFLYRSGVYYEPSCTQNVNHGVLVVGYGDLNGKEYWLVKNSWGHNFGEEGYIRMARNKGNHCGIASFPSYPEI

Procedure: Recombinant human cathepsin S (CatS) was expressed in the baculovirus system and purified in one step with a thiopropyl-sepharose column. 10-L yielded ˜700 mg of CatS and N-terminal sequencing confirmed identity. The assay is run in 150 mM sodium acetate pH 5.0 containing 1.5 mM DTT and 150 mM NaCl. […] Using 2 ng/well of CatS, the production of product is linear and yields-7-fold signal after 20 min with only 20% loss of substrate. Measurements are taken every min for 20 min. The rate is calculated from the slope of the increase in fluorescence and the percent inhibition is calculated from this.

Broadly, the IC50 is the concentration that inhibits the measured activity by half. Take `COC(=O)CNCc1cccc(C#Cc2cc(-c3nn(CCCN4CCOCC4)c4c3CN(S(C)(=O)=O)CC4)ccc2Cl)c1` [Example 188, Methyl N-{[3-({2-chloro-5-[5-(methylsulfonyl)-1-(3-morpholin-4-ylpropyl)-4,5,6,7-tetrahydro-1H-pyrazolo[4,3-c]pyridin-3-yl]phenyl}ethynyl)phenyl]methyl}glycinate]: the IC50 (CatS IC50) was 0.55 µM.

Regarding `NC(=O)N1CCc2c(c(-c3ccc(Cl)c(C#Cc4ccc(CNCc5ccc(N)cc5)cc4)c3)nn2CCCN2CCSCC2)C1` [Example 551, 3-(3-{[4-({[(4-Aminophenyl)methyl]amino}methyl)phenyl]ethynyl}-4-chlorophenyl)-1-(3-thiomorpholin-4-ylpropyl)-1,4,6,7-tetrahydro-5H-pyrazolo[4,3-c]pyridine-5-carboxamide], the 50% inhibitory concentration (IC50) (CatS IC50) was 0.1 µM.

As to `C[C@H]1COCCN1CCCn1nc(-c2ccc(Cl)c(C#Cc3ccc(Cl)c(COC4CCN(C(=O)OC(C)(C)C)C4)c3)c2)c2c1CCN(C(=O)C(N)=O)C2` (stereo partly drawn) [Example 559, tert-Butyl 3-[(5-{[5-(5-[amino(oxo)acetyl]-1-{3-[(3S)-3-methylmorpholin-4-yl]propyl}-4,5,6,7-tetrahydro-1H-pyrazolo[4,3-c]pyridin-3-yl)-2-chlorophenyl]ethynyl}-2-chlorobenzyl)oxy]pyrrolidine-1-carboxylate], the concentration for half-maximal inhibition (IC50) was determined as 0.1 µM. Same read-out and setting: with `CS(=O)(=O)N1CCc2c(c(-c3ccc(Cl)c(CCCN4CCCCC4)c3)nn2CCCN2CCC(N3CCCC3=O)CC2)C1` [Example 102, 1-[1-(3-{3-[4-Chloro-3-(3-piperidin-1-yl-propyl)-phenyl]-5-methanesulfonyl-4,5,6,7-tetrahydro-pyrazolo[4,3-c]pyridin-1-yl}-propyl)-piperidin-4-yl]-pyrrolidin-2-one] the figure was 0.84 µM. The same measure, in the same setting: with `CS(=O)(=O)N1CCc2c(c(-c3ccc(Cl)c(/C=C\c4ccccc4)c3)nn2CCCN2CCOCC2)C1` [Example 67, 3-(4-Chloro-3-Z-styryl-phenyl)-5-methanesulfonyl-1-(3-morpholin-4-yl-propyl)-4,5,6,7-tetrahydro-1H-pyrazolo[4,3-c]pyridine] the figure was 3.05 µM; with `CC(C)N1CCc2ccc(C#Cc3cc(-c4nn(CCCN5CCOC[C@@H]5C)c5c4CN(S(C)(=O)=O)CC5)ccc3Cl)cc2C1` [Example 279, 7-({2-Chloro-5-[1-{3-[(3S)-3-methylmorpholin-4-yl]propyl}-5-(methylsulfonyl)-4,5,6,7-tetrahydro-1H-pyrazolo[4,3-c]pyridin-3-yl]phenyl}ethynyl)-2-(1-methylethyl)-1,2,3,4-tetrahydroisoquinoline], 0.11 µM; with `C[C@H]1COCCN1CCCn1nc(-c2ccc(Cl)c(C#Cc3ccc(Cl)c(CNCc4ccccc4)c3)c2)c2c1CCN(C(=O)C(N)=O)C2` [Example 285, 2-(3-{4-Chloro-3-[(4-chloro-3-{[(phenylmethyl)amino]methyl}phenyl)ethynyl]phenyl}-1-{3-[(3S)-3-methylmorpholin-4-yl]propyl}-1,4,6,7-tetrahydro-5H-pyrazolo[4,3-c]pyridin-5-yl)-2-oxoacetamide], 0.02 µM.

Regarding `Clc1ccc(C#Cc2cc(-c3nn(CCCN4CCOCC4)c4c3CNCC4)ccc2Cl)cc1` [Example 297, 3-{4-Chloro-3-[(4-chlorophenyl)ethynyl]phenyl}-1-(3-morpholin-4-ylpropyl)-4,5,6,7-tetrahydro-1H-pyrazolo[4,3-c]pyridine], the IC50 was determined as 1.6 µM. Still for that read-out and setting: the same measure for `CS(=O)(=O)N1CCc2c(c(-c3ccc(Cl)c(C#Cc4ccc5c(c4)CC(C(=O)N4CCOCC4)NC5)c3)nn2CCCN2CCOCC2)C1` (centres unmarked) [Example 483, 6-({2-Chloro-5-[5-(methylsulfonyl)-1-(3-morpholin-4-ylpropyl)-4,5,6,7-tetrahydro-1H-pyrazolo[4,3-c]pyridin-3-yl]phenyl}ethynyl)-3-(morpholin-4-ylcarbonyl)-1,2,3,4-tetrahydroisoquinoline]: 0.14 µM. As for `C[C@H]1COCCN1CCCn1nc(-c2ccc(Cl)c(C#Cc3ccc(Cl)c(C(=O)N4CCCNCC4)c3)c2)c2c1CCN(C(=O)C(N)=O)C2` [Example 575, 2-[3-(4-Chloro-3-{[4-chloro-3-(1,4-diazepan-1-ylcarbonyl)phenyl]ethynyl}phenyl)-1-{3-[(3S)-3-methylmorpholin-4-yl]propyl}-1,4,6,7-tetrahydro-5H-pyrazolo[4,3-c]pyridin-5-yl]-2-oxoacetamide], where the note is “CatS IC50”, the IC50 worked out at 0.17 µM.

As to `CS(=O)(=O)N1CCc2c(c(-c3ccc(Cl)c(C#Cc4ccc5c(c4)CN[C@@H](CO)C5)c3)nn2CCCN2CCOCC2)C1` [Example 201, [(3R)-7-({2-Chloro-5-[5-(methylsulfonyl)-1-(3-morpholin-4-ylpropyl)-4,5,6,7-tetrahydro-1H-pyrazolo[4,3-c]pyridin-3-yl]phenyl}ethynyl)-1,2,3,4-tetrahydroisoquinolin-3-yl]methanol], the concentration for half-maximal inhibition (IC50) (CatS IC50) is 0.19 µM. For the compound `NC(=O)N1CCc2c(c(-c3ccc(Cl)c(CCc4ccc(Cl)cc4)c3)nn2CCCN2CCOCC2)C1` [Example 145, 3-{4-Chloro-3-[2-(4-chloro-phenyl)-ethyl]-phenyl}-1-(3-morpholin-4-yl-propyl)-1,4,6,7-tetrahydro-pyrazolo[4,3-c]pyridine-5-carboxylic acid amide], the IC50 turned out to be 0.09 µM. Still for that read-out and setting: the same measure for `CS(=O)(=O)N1CCc2c(c(-c3ccc(Cl)c(CCCCO)c3)nn2CCCN2CCC(N3CCCC3=O)CC2)C1` [Example 311, 1-[1-(3-{3-[4-Chloro-3-(4-hydroxybutyl)phenyl]-5-(methylsulfonyl)-4,5,6,7-tetrahydro-1H-pyrazolo[4,3-c]pyridin-1-yl}propyl)piperidin-4-yl]pyrrolidin-2-one]: 1.35 µM; for `CS(=O)(=O)N1CCc2c(c(-c3ccc(Cl)c(CCCNS(=O)(=O)c4ccccc4Cl)c3)nn2CCCN2CCC(N3CCCC3=O)CC2)C1` [Example 95, 2-Chloro-N-{3-[2-chloro-5-(5-methanesulfonyl-1-{3-[4-(2-oxo-pyrrolidin-1-yl)-piperidin-1-yl]-propyl}-4,5,6,7-tetrahydro-1H-pyrazolo[4,3-c]pyridin-3-yl)-phenyl]-propyl}-benzenesulfonamide]: 1.15 µM. Turning to `CS(=O)(=O)N1CCc2c(c(-c3ccc(Cl)c(C#Cc4cccc(C(F)(F)F)c4)c3)nn2CCCN2CCOCC2)C1` [Example 36, 3-[4-Chloro-3-(3-trifluoromethyl-phenylethynyl)-phenyl]-5-methanesulfonyl-1-(3-morpholin-4-yl-propyl)-4,5,6,7-tetrahydro-1H-pyrazolo[4,3-c]pyridine], the IC50 (CatS IC50, Table 2, average of results obtained) stood at 1.45 µM. For the compound `CN(C)Cc1cc(C#Cc2cc(-c3nn(CCCN4CCCCC4)c4c3CN(S(C)(=O)=O)CC4)ccc2Cl)ccc1Cl` [Example 617, 1-[2-Chloro-5-({2-chloro-5-[5-(methylsulfonyl)-1-(3-piperidin-1-ylpropyl)-4,5,6,7-tetrahydro-1H-pyrazolo[4,3-c]pyridin-3-yl]phenyl}ethynyl)phenyl]-N,N-dimethylmethanamine], the 50% inhibitory concentration (IC50) (CatS IC50) was determined as 0.04 µM.

Take `CS(=O)(=O)N1CCc2c(c(-c3ccc(Cl)c(C#Cc4ccc(Cl)cc4)c3)nn2CC(O)CN2CCCCC2)C1` (centres unmarked) [Example 125, 1-{3-[4-Chloro-3-(4-chloro-phenylethynyl)-phenyl]-5-methanesulfonyl-4,5,6,7-tetrahydro-pyrazolo[4,3-c]pyridin-1-yl}-3-piperidin-1-yl-propan-2-ol]: the IC50 was 0.08 µM. `CN(Cc1ccc(Cl)cc1)Cc1ccc(C#Cc2cc(-c3nn(CCCN4CCN(c5ccccn5)CC4)c4c3CN(S(C)(=O)=O)CC4)ccc2Cl)cc1` [Example 502, 1-{4-[(2-Chloro-5-{5-(methylsulfonyl)-1-[3-(4-pyridin-2-ylpiperazin-1-yl)propyl]-4,5,6,7-tetrahydro-1H-pyrazolo[4,3-c]pyridin-3-yl}phenyl)ethynyl]phenyl}-N-[(4-chlorophenyl)methyl]-N-methylmethanamine]: the half-maximal inhibitory concentration (IC50) (CatS IC50) was found to be 0.11 µM.

With `CS(=O)(=O)N1CCc2c(c(-c3ccc(Cl)c(C#Cc4ccc(CNCc5ccc(Cl)cc5)cc4)c3)nn2CCCN2CCC(C(F)(F)F)CC2)C1` [Example 345, 1-[4-({2-Chloro-5-[5-(methylsulfonyl)-1-{3-[4-(trifluoromethyl)piperidin-1-yl]propyl}-4,5,6,7-tetrahydro-1H-pyrazolo[4,3-c]pyridin-3-yl]phenyl}ethynyl)phenyl]-N-[(4-chlorophenyl)methyl]methanamine], for the setting “CatS IC50”, the IC50 worked out at 0.11 µM.

For `CS(=O)(=O)N1CCc2c(c(-c3ccc(Cl)c(C#Cc4ccc5[nH]ccc5c4)c3)nn2CCCN2CCOCC2)C1` [Example 1, 3-[4-Chloro-3-(1H-indol-5-ylethynyl)-phenyl]-5-methanesulfonyl-1-(3-morpholin-4-yl-propyl)-4,5,6,7-tetrahydro-1H-pyrazolo[4,3-c]pyridine], the half-maximal inhibitory concentration (IC50) stood at 0.19 µM.

With `NC(=O)C(=O)N1CCc2c(c(-c3ccc(Cl)c(C#Cc4ccc(Cl)c(C(=O)N5CCCNCC5)c4)c3)nn2CCCN2CCSCC2)C1` [Example 569, 2-[3-(4-Chloro-3-{[4-chloro-3-(1,4-diazepan-1-ylcarbonyl)phenyl]ethynyl}phenyl)-1-(3-thiomorpholin-4-ylpropyl)-1,4,6,7-tetrahydro-5H-pyrazolo[4,3-c]pyridin-5-yl]-2-oxoacetamide], the IC50 (CatS IC50) was determined as 0.15 µM. `CC(=O)N1CCc2c(c(-c3ccc(Cl)c(C#Cc4ccc(CNCc5ccc(Cl)cc5)cc4)c3)nn2CCCN2CCOC[C@@H]2C)C1` [Example 400, 1-(4-{[5-(5-Acetyl-1-{3-[(3S)-3-methylmorpholin-4-yl]propyl}-4,5,6,7-tetrahydro-1H-pyrazolo[4,3-c]pyridin-3-yl)-2-chlorophenyl]ethynyl}phenyl)-N-[(4-chlorophenyl)methyl]methanamine]: the IC50 was determined as 0.19 µM. Take `CS(=O)(=O)N1CCc2c(c(-c3ccc(Cl)c(C#Cc4ccc(C(F)(F)F)cc4)c3)nn2CCCN2CCOCC2)C1` [Example 30, 3-[4-Chloro-3-(4-trifluoromethyl-phenylethynyl)-phenyl]-5-methanesulfonyl-1-(3-morpholin-4-yl-propyl)-4,5,6,7-tetrahydro-1H-pyrazolo[4,3-c]pyridine]: the IC50 (CatS IC50) is 0.43 µM.
